The values that follow come from US5656588A, “Wound healing formula” (Wake Forest University, priority 1994, dated 1997).

Entries after “also recorded” stand apart in the source; their conditions may differ. Where two headings read alike, the source gives them in different places.

For assay [1], the system named is wound healing. To be noted: supplementation of the diet, animals and humans; cited from earlier work.
Assay [2] concerns wound healing. The experiment in a line: Wound strength (abdominal bursting strength) in animals given carnosine or histidine following surgery. The class given is in vivo. The following applies: supplement to a complete diet, mammals not nutritionally deprived. An excerpt:
Pursuant to the present invention, therapeutically effective amounts of carnosine are supplemented with a complete diet. […] Previous studies in this area have advocated that the wound healing effects can be achieved with histamine or histidine. […] Table 2 illustrates comparative results between carnosine and histidine administered to animals following surgery.

Assay [3] relates to gastric and duodenal ulcers. The following applies: food deprived rats; cited from earlier work.

For the compound `N=C(N)NCCC[C@H](N)C(=O)O` [arginine], in assay [1], the “Effect on wound healing (in words)” value is listed as “improves wound healing”.
As to `NCCC(=O)N[C@@H](Cc1c[nH]cn1)C(=O)O` [carnosine, β-alanyl-histidine], the “Effect on wound healing (in words)” value in assay [2] was “improves wound healing; also recorded: more effective in stimulating wound healing than histidine treatment”.
On to N-acetyl-L-carnosine aluminum, for which the “Protection against ulcer formation (in words)” value in assay [3] is “protects against the formation of gastric and duodenal ulcers”.
